Laboratory results from patent US20260262643A1, “HERBICIDAL BENZOXAZINES” (FMC CORPORATION, priority 2022, published 2026).

Key:
barnyardgrass [1] = assay: Test C preemergence; type: in vivo, Echinochloa crusgalli; conditions: 0 to 100 scale (0 no effect, 100 complete control); for Plant response rating, Barnyardgrass: Preemergence, 500 g ai/ha, visual rating after 10 days; for Barnyardgrass plant response rating: Test C, preemergence, 125 g ai/ha
Summary of the method: (§1)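 Greenhouse herbicide screen, 10-day duration. Test chemicals in solvent/surfactant blend were sprayed onto soil at sowing (pre) or onto 2–10 cm seedlings at one to two leaves (post); injury scored visually against controls, 0 no effect to 100 complete control.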

blackgrass [2] = assay: Test C preemergence; type: in vivo, Alopecurus myosuroides; conditions: 0 to 100 scale (0 no effect, 100 complete control); for Plant response rating, Blackgrass: Preemergence, 500 g ai/ha, visual rating after 10 days; for Blackgrass plant response rating: Test C, preemergence, 125 g ai/ha
Summary of the method: as §1

corn [3] = assay: Test C preemergence; type: in vivo, Zea mays; conditions: 0 to 100 scale (0 no effect, 100 complete control); for Plant response rating, Corn: Preemergence, 500 g ai/ha, visual rating after 10 days; for Corn plant response rating: Test C, preemergence, 125 g ai/ha
Summary of the method: as §1

green foxtail [4] = assay: Test C preemergence; type: in vivo, Setaria viridis; conditions: 0 to 100 scale (0 no effect, 100 complete control); for Plant response rating, Foxtail, Green: Preemergence, 500 g ai/ha, visual rating after 10 days; for Foxtail, Green plant response rating: Test C, preemergence, 125 g ai/ha
Summary of the method: as §1

kochia [5] = assay: Test C preemergence; type: in vivo, Bassia scoparia; conditions: 0 to 100 scale (0 no effect, 100 complete control); for Plant response rating, Kochia: Preemergence, 500 g ai/ha, visual rating after 10 days; for Kochia plant response rating: Test C, preemergence, 125 g ai/ha
Summary of the method: as §1

oat, wild [6] = assay: Test C preemergence; type: in vivo, Avena fatua; conditions: 0 to 100 scale (0 no effect, 100 complete control); for Plant response rating, Oat, Wild: Preemergence, 500 g ai/ha, visual rating after 10 days; for Oat, Wild plant response rating: Test C, preemergence, 125 g ai/ha
Summary of the method: as §1

pigweed, palmer [7] = assay: Test C preemergence; type: in vivo, Amaranthus palmeri; conditions: 0 to 100 scale (0 no effect, 100 complete control); for Plant response rating, Pigweed, Palmer: Preemergence, 500 g ai/ha, visual rating after 10 days; for Pigweed, Palmer plant response rating: Test C, preemergence, 125 g ai/ha
Summary of the method: as §1

ragweed [8] = assay: Test C preemergence; type: in vivo, Ambrosia artemisiifolia; conditions: 0 to 100 scale (0 no effect, 100 complete control); for Plant response rating, Ragweed: Preemergence, 500 g ai/ha, visual rating after 10 days; for Ragweed plant response rating: Test C, preemergence, 125 g ai/ha
Summary of the method: as §1

ryegrass, Italian [9] = assay: Test C preemergence; type: in vivo, Lolium multiflorum; conditions: 0 to 100 scale (0 no effect, 100 complete control); for Plant response rating, Ryegrass, Italian: Preemergence, 500 g ai/ha, visual rating after 10 days; for Ryegrass, Italian plant response rating: Test C, preemergence, 125 g ai/ha
Summary of the method: as §1

soybean [10] = assay: Test C preemergence; type: in vivo, Glycine max; conditions: 0 to 100 scale (0 no effect, 100 complete control); for Plant response rating, Soybean: Preemergence, 500 g ai/ha, visual rating after 10 days; for Soybean plant response rating: Test C, preemergence, 125 g ai/ha
Summary of the method: as §1

wheat [11] = assay: Test C preemergence; type: in vivo, Triticum aestivum; conditions: 0 to 100 scale (0 no effect, 100 complete control); for Plant response rating, Wheat: Preemergence, 500 g ai/ha, visual rating after 10 days; for Wheat plant response rating: Test C, preemergence, 125 g ai/ha
Summary of the method: as §1

barnyardgrass [12] = assay: Test C postemergence; type: in vivo, Echinochloa crusgalli; conditions: 10 days
Summary of the method: as §1

blackgrass [13] = assay: Test C postemergence; type: in vivo, Alopecurus myosuroides; conditions: 10 days
Summary of the method: as §1

corn [14] = assay: Test C postemergence; type: in vivo, Zea mays; conditions: 10 days
Summary of the method: as §1

green foxtail [15] = assay: Test C postemergence; type: in vivo, Setaria viridis; conditions: 10 days
Summary of the method: as §1

kochia [16] = assay: Test C postemergence; type: in vivo, Bassia scoparia; conditions: 10 days
Summary of the method: as §1

oat, wild [17] = assay: Test C postemergence; type: in vivo, Avena fatua; conditions: 10 days
Summary of the method: as §1

pigweed, palmer [18] = assay: Test C postemergence; type: in vivo, Amaranthus palmeri; conditions: 10 days
Summary of the method: as §1

ragweed [19] = assay: Test C postemergence; type: in vivo, Ambrosia artemisiifolia; conditions: 10 days
Summary of the method: as §1

ryegrass, Italian [20] = assay: Test C postemergence; type: in vivo, Lolium multiflorum; conditions: 10 days
Summary of the method: as §1

soybean [21] = assay: Test C postemergence; type: in vivo, Glycine max; conditions: 10 days
Summary of the method: as §1

wheat [22] = assay: Test C postemergence; type: in vivo, Triticum aestivum; conditions: 10 days
Summary of the method: as §1

horseweed = assay: Test C postemergence; type: in vivo, Erigeron canadensis; conditions: 10 days
Summary of the method: as §1

barnyardgrass [23] = assay: Test D flooded paddy test; type: in vivo, Echinochloa crus-galli; conditions: 250 g ai/ha, applied to paddy water, visual rating after 13 to 14 days, scale 0 to 100 (0 no effect, 100 complete control)
Summary of the method: (§2)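 Rating scale 0–100 (0 no effect, 100 complete control), visual, versus controls. Readout at 13–14 days after in-water application to 2-leaf plants in pots flooded 3 cm deep.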

ducksalad = assay: Test D flooded paddy test; type: in vivo, Heteranthera limosa; conditions: 250 g ai/ha, applied to paddy water, visual rating after 13 to 14 days, scale 0 to 100 (0 no effect, 100 complete control)
Summary of the method: as §2

rice = assay: Test D flooded paddy test; type: in vivo, Oryza sativa; conditions: 250 g ai/ha, applied to paddy water, visual rating after 13 to 14 days, scale 0 to 100 (0 no effect, 100 complete control)
Summary of the method: as §2

sedge, umbrella = assay: Test D flooded paddy test; type: in vivo, Cyperus difformis; conditions: 250 g ai/ha, applied to paddy water, visual rating after 13 to 14 days, scale 0 to 100 (0 no effect, 100 complete control)
Summary of the method: as §2

[24] = 125 g ai/ha, postemergence, 0 to 100 scale, 0 no effect, 100 complete control
[25] = Postemergence, 500 g ai/ha, visual 0 to 100 scale (0 no effect, 100 complete control)

CCc1ncn(-c2ccc(OC)c(C(=O)N3C[C@H](C)Oc4c(C)cccc43)c2)n1 [Compound 211]
Plant response rating, Barnyardgrass (barnyardgrass [1]): 100
Barnyardgrass plant response rating (barnyardgrass [1]): 100
Plant response rating, Blackgrass (blackgrass [2]): 90
Blackgrass plant response rating (blackgrass [2]): 90
Plant response rating, Corn (corn [3]): 70
Corn plant response rating (corn [3]): 70
Plant response rating, Foxtail, Green (green foxtail [4]): 100
Foxtail, Green plant response rating (green foxtail [4]): 0
Plant response rating, Kochia (kochia [5]): 100
Kochia plant response rating (kochia [5]): 100
Plant response rating, Oat, Wild (oat, wild [6]): 90
Oat, Wild plant response rating (oat, wild [6]): 70
Plant response rating, Pigweed, Palmer (pigweed, palmer [7]): 100
Pigweed, Palmer plant response rating (pigweed, palmer [7]): 100
Plant response rating, Ragweed (ragweed [8]): 100
Ragweed plant response rating (ragweed [8]): 100
Plant response rating, Ryegrass, Italian (ryegrass, Italian [9]): 100
Ryegrass, Italian plant response rating (ryegrass, Italian [9]): 100
Plant response rating, Soybean (soybean [10]): 100
Soybean plant response rating (soybean [10]): 100
Plant response rating, Wheat (wheat [11]): 80
Wheat plant response rating (wheat [11]): 80
Plant response rating, Barnyardgrass (barnyardgrass [12]; [24]): 80
Plant response rating, Barnyardgrass (barnyardgrass [12]; [25]): 100
Plant response rating, Blackgrass (blackgrass [13]; [24]): 90
Plant response rating, Blackgrass (blackgrass [13]; [25]): 100
Plant response rating, Corn (corn [14]; [24]): 70
Plant response rating, Corn (corn [14]; [25]): 90
Plant response rating, Foxtail, Green (green foxtail [15]; [24]): 90
Plant response rating, Foxtail, Green (green foxtail [15]; [25]): 90
Plant response rating, Kochia (kochia [16]; [24]): 70
Plant response rating, Kochia (kochia [16]; [25]): 90
Plant response rating, Oat, Wild (oat, wild [17]; [24]): 70
Plant response rating, Oat, Wild (oat, wild [17]; [25]): 90
Plant response rating, Pigweed, Palmer (pigweed, palmer [18]; [24]): 90
Plant response rating, Pigweed, Palmer (pigweed, palmer [18]; [25]): 100
Plant response rating, Ragweed (ragweed [19]; [24]): 50
Plant response rating, Ragweed (ragweed [19]; [25]): 70
Plant response rating, Ryegrass, Italian (ryegrass, Italian [20]; [24]): 70
Plant response rating, Ryegrass, Italian (ryegrass, Italian [20]; [25]): 90
Plant response rating, Soybean (soybean [21]; [24]): 100
Plant response rating, Soybean (soybean [21]; [25]): 100
Plant response rating, Wheat (wheat [22]; [24]): 70
Plant response rating, Wheat (wheat [22]; [25]): 90
Plant response rating, Horseweed (horseweed; [24]): 80
Plant response rating, Horseweed (horseweed; [25]): 90
Plant response rating, Barnyardgrass (Flood) (barnyardgrass [23]): 55
Plant response rating, Ducksalad (Flood) (ducksalad): 100
Plant response rating, Rice (Flood) (rice): 50
Plant response rating, Sedge, Umbrella (Flood) (sedge, umbrella): 100

COc1cc(C(=O)N2C[C@H](C)Oc3c(Cl)cccc32)cc(-n2cnc(C3CC3)n2)c1 [Compound 216]
Plant response rating, Barnyardgrass (barnyardgrass [1]): 90
Barnyardgrass plant response rating (barnyardgrass [1]): 40
Plant response rating, Blackgrass (blackgrass [2]): 90
Blackgrass plant response rating (blackgrass [2]): 20
Plant response rating, Corn (corn [3]): 30
Corn plant response rating (corn [3]): 0
Plant response rating, Foxtail, Green (green foxtail [4]): 100
Foxtail, Green plant response rating (green foxtail [4]): 100
Plant response rating, Kochia (kochia [5]): 100
Kochia plant response rating (kochia [5]): 70
Plant response rating, Oat, Wild (oat, wild [6]): 40
Oat, Wild plant response rating (oat, wild [6]): 0
Plant response rating, Pigweed, Palmer (pigweed, palmer [7]): 100
Pigweed, Palmer plant response rating (pigweed, palmer [7]): 100
Plant response rating, Ragweed (ragweed [8]): 40
Ragweed plant response rating (ragweed [8]): 0
Plant response rating, Ryegrass, Italian (ryegrass, Italian [9]): 90
Ryegrass, Italian plant response rating (ryegrass, Italian [9]): 80
Plant response rating, Soybean (soybean [10]): 100
Soybean plant response rating (soybean [10]): 50
Plant response rating, Wheat (wheat [11]): 20
Wheat plant response rating (wheat [11]): 0
Plant response rating, Barnyardgrass (barnyardgrass [12]; [24]): 10
Plant response rating, Barnyardgrass (barnyardgrass [12]; [25]): 60
Plant response rating, Blackgrass (blackgrass [13]; [24]): 30
Plant response rating, Blackgrass (blackgrass [13]; [25]): 100
Plant response rating, Corn (corn [14]; [24]): 10
Plant response rating, Corn (corn [14]; [25]): 20
Plant response rating, Foxtail, Green (green foxtail [15]; [24]): 70
Plant response rating, Foxtail, Green (green foxtail [15]; [25]): 90
Plant response rating, Kochia (kochia [16]; [24]): 80
Plant response rating, Kochia (kochia [16]; [25]): 90
Plant response rating, Oat, Wild (oat, wild [17]; [24]): 20
Plant response rating, Oat, Wild (oat, wild [17]; [25]): 20
Plant response rating, Pigweed, Palmer (pigweed, palmer [18]; [24]): 80
Plant response rating, Pigweed, Palmer (pigweed, palmer [18]; [25]): 90
Plant response rating, Ragweed (ragweed [19]; [24]): 60
Plant response rating, Ragweed (ragweed [19]; [25]): 80
Plant response rating, Ryegrass, Italian (ryegrass, Italian [20]; [24]): 20
Plant response rating, Ryegrass, Italian (ryegrass, Italian [20]; [25]): 60
Plant response rating, Soybean (soybean [21]; [24]): 100
Plant response rating, Soybean (soybean [21]; [25]): 100
Plant response rating, Wheat (wheat [22]; [24]): 20
Plant response rating, Wheat (wheat [22]; [25]): 30
Plant response rating, Horseweed (horseweed; [24]): 0
Plant response rating, Horseweed (horseweed; [25]): 50
Plant response rating, Barnyardgrass (Flood) (barnyardgrass [23]): 40
Plant response rating, Ducksalad (Flood) (ducksalad): 100
Plant response rating, Rice (Flood) (rice): 10
Plant response rating, Sedge, Umbrella (Flood) (sedge, umbrella): 95
